Values joined by “and” are separate entries in the source; they are usually repeats but may differ in a detail not shown here. Equal entries are not always repeated.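 Exposure lasted 48 hours, with cells grown in 96-well plates and compounds tested at five concentrations. GI50 is the concentration that inhibits growth by half. At the TGI there is no net growth.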

For the first experiment, the system named is NCI-H460 lung. Briefly: DTP human tumour cell line panel, 48 h.
Regarding `COC(=O)C(c1[nH]nc2ccccc12)C(C(=O)OC)c1[nH]nc2ccccc12` (centres undefined), the TGI is greater than 100 µM.

Take `C#CCNC(=O)NC(CCCNC(=O)OCc1ccccc1)C(=O)OCc1ccccc1` (centres undefined): the TGI was greater than 100 µM.

For the compound `COc1ccc2cc1Oc1ccc(cc1)C[C@H]1c3cc(c(OC)cc3CCN1C)Oc1c(OC)c(OC)cc3c1[C@H](C2)N(C)CC3`, the TGI stood at 14.5 µM.

In the case of `O=c1[nH]c2ccccc2cc1C(Cl)=C(Cl)Cl`, the TGI is greater than 100 µM.

In the case of `O=[N+]([O-])[C@@H]1C2C=CC(C2)[C@H]1Cl` (some centres undefined), the TGI was greater than 100 µM.

Consider `COC(=O)C(C#N)=C1c2ccccc2Oc2ccccc21`, for which the TGI is greater than 100 µM.

On to `COc1c(C2CC(=O)Nc3c2cnn3Cc2ccco2)cc2c(c1OC)OCO2` (centres undefined), for which the GI50 is 0.401 µM and the total growth inhibition concentration (TGI) was greater than 100 µM.

In turn, `N#CC1(c2nc3ccccc3o2)C(=O)C(=O)N(C2C3CC4CC(C3)CC2C4)C(=O)C1=O` (centres undefined) yielded a TGI greater than 100 µM.

`O=C1NC(c2ccc(O)cc2)C2CCC1C2` (centres undefined) had a TGI greater than 100 µM.

Take `CCOC(=O)C1(CC)CCCCC(=O)N1` (centres undefined): the TGI is greater than 100 µM.

On to `C=CC1=CSNN1`, for which the TGI is greater than 100 µM.

Compound `O=C(C#Cc1c[nH]c(=O)[nH]c1=O)c1ccccc1Cl` yielded a TGI of 67.7 µM.

Compound `CC(=O)OC1=C2CC3(C)OC(=O)CC(C)(C)C3=CC=C2C=C(C(C)C)C1=O` (centres undefined) returned a TGI of 3.31 µM.

The compound `CCCCCCCCCCCCCCCC(=O)NCC(COP(=O)([O-])OCC[N+](C)(C)C)OCC` (centres undefined) had a TGI of 7.28 µM.

For the compound `COc1ccc(C(=O)Nc2ncc(Cc3ccc(Cl)cc3)s2)cc1`, the GI50 was 0.0406 µM and the concentration for total growth inhibition (TGI) is greater than 100 µM.

As to `O=C1NC2(CCCC2)C(=O)C12CCCC2`, the TGI is greater than 100 µM.

As to `O=C1CCCN(c2ccccc2)N1`, the TGI is greater than 100 µM.

In the case of `CCOC(=O)C1=C(C)Nc2ccccc2S1`, the TGI is greater than 100 µM.

For the compound `Nc1n[nH]c2ccc([C@@H]3Nc4ccc5[nH]ncc5c4[C@H]4[C@H]5CCC(C5)[C@H]43)cc12`, the GI50 was 0.358 µM and the TGI amounted to 10.9 µM.

Turning to `CCOC(=O)CC1=Nc2ccccc2SC1`, the TGI is greater than 100 µM.

In the case of `C=CCSC[C@H](NC(=O)COc1ccccc1)C(=O)NC(C(=O)OCc1ccc([N+](=O)[O-])cc1)=C(C)C`, the TGI is greater than 100 µM.

The next experiment relates to 786-0 renal. The experiment in a line: DTP human tumour cell line panel, 48 h.
With `C[C@@H]1CC[C@H]2C(COCC3=C(C(F)(F)F)O[C@@H]4O[C@@]5(C)CC[C@H]6[C@H](C)CC[C@@H]3[C@@]46OO5)=C(C(F)(F)F)O[C@@H]3O[C@@]4(C)CC[C@@H]1[C@]32OO4`, the GI50 was 0.182 µM and the TGI was greater than 100 µM.

In the case of `CCOc1ccc(NC(=O)CC2Sc3ccccc3NC2=O)cc1` (centres undefined), the TGI was determined as 39.3 µM.

Regarding `Cn1cc(NC(=O)c2cc(NC(=O)CCCCCCCCCCC(=O)Nc3cc(C(=O)Nc4cc(C(=O)NCCC(=N)N)n(C)c4)n(C)c3)cn2C)cc1C(=O)NCCC(=N)N`, the TGI is greater than 100 µM.

Turning to `C1COCCN1.C1COCCN1.N.N.[Cl-].[Pt+2]`, the GI50 was greater than 100 µM and the TGI was greater than 100 µM.

In turn, `Cc1ccccc1C(C#N)C(=O)C(=O)Nc1nc([N+](=O)[O-])cs1` (centres undefined) had a TGI greater than 100 µM.

The compound `COC(=O)C(c1[nH]nc2ccccc12)C(C(=O)OC)c1[nH]nc2ccccc12` (centres undefined) gave a TGI greater than 100 µM.

`C#CCNC(=O)NC(CCCNC(=O)OCc1ccccc1)C(=O)OCc1ccccc1` (centres undefined) displayed a TGI greater than 100 µM.

Regarding `COc1ccc2cc1Oc1ccc(cc1)C[C@H]1c3cc(c(OC)cc3CCN1C)Oc1c(OC)c(OC)cc3c1[C@H](C2)N(C)CC3`, the GI50 was 5.1 µM; the TGI was 12.4 µM and 18 µM and > 100 µM.

With `O=c1[nH]c2ccccc2cc1C(Cl)=C(Cl)Cl`, the TGI was greater than 100 µM.

On to `O=[N+]([O-])[C@@H]1C2C=CC(C2)[C@H]1Cl` (some centres undefined), for which the concentration for total growth inhibition (TGI) was greater than 100 µM.

In turn, `COC(=O)C(C#N)=C1c2ccccc2Oc2ccccc21` came in with a TGI greater than 100 µM.

For `COc1c(C2CC(=O)Nc3c2cnn3Cc2ccco2)cc2c(c1OC)OCO2` (centres undefined), the GI50 is 0.917 µM and the TGI was greater than 100 µM.

Compound `N#CC1(c2nc3ccccc3o2)C(=O)C(=O)N(C2C3CC4CC(C3)CC2C4)C(=O)C1=O` (centres undefined) gave a TGI greater than 100 µM.

On to `O=C1NC(c2ccc(O)cc2)C2CCC1C2` (centres undefined), for which the TGI is greater than 100 µM.

In turn, `CCOC(=O)C1(CC)CCCCC(=O)N1` (centres undefined) gave a concentration for total growth inhibition (TGI) greater than 100 µM.

For `C=CC1=CSNN1`, the TGI was greater than 100 µM.

In turn, `O=C(C#Cc1c[nH]c(=O)[nH]c1=O)c1ccccc1Cl` had a TGI of 32 µM.

The compound `CC(=O)OC1=C2CC3(C)OC(=O)CC(C)(C)C3=CC=C2C=C(C(C)C)C1=O` (centres undefined) returned a TGI of 0.388 µM.

In the case of `CCCCCCCCCCCCCCCC(=O)NCC(COP(=O)([O-])OCC[N+](C)(C)C)OCC` (centres undefined), the TGI worked out at 5.82 µM.

With `COc1ccc(C(=O)Nc2ncc(Cc3ccc(Cl)cc3)s2)cc1`, the GI50 is 0.0779 µM and the TGI is greater than 100 µM.

Take `O=C1NC2(CCCC2)C(=O)C12CCCC2`: the TGI is greater than 100 µM.

The compound `O=C1CCCN(c2ccccc2)N1` showed a TGI greater than 100 µM.

Regarding `CN(C)/C(=N/C(=S)Nc1ccccc1)SCc1ccccc1`, the TGI is greater than 100 µM.

The compound `CCOC(=O)C1=C(C)Nc2ccccc2S1` came in with a TGI greater than 100 µM.

As for `Nc1n[nH]c2ccc([C@@H]3Nc4ccc5[nH]ncc5c4[C@H]4[C@H]5CCC(C5)[C@H]43)cc12`, the GI50 is 0.757 µM and the TGI came to 33.8 µM.

`CCOC(=O)CC1=Nc2ccccc2SC1` had a TGI greater than 100 µM.

As for `C=CCSC[C@H](NC(=O)COc1ccccc1)C(=O)NC(C(=O)OCc1ccc([N+](=O)[O-])cc1)=C(C)C`, the TGI was greater than 100 µM.

The subject of a further experiment is MDA-MB-231 breast. Briefly: DTP human tumour cell line panel, 48 h.
For the compound `C[C@@H]1CC[C@H]2C(COCC3=C(C(F)(F)F)O[C@@H]4O[C@@]5(C)CC[C@H]6[C@H](C)CC[C@@H]3[C@@]46OO5)=C(C(F)(F)F)O[C@@H]3O[C@@]4(C)CC[C@@H]1[C@]32OO4`, the GI50 was 0.037 µM and the TGI was greater than 100 µM.

Take `COc1ccc2cc1Oc1ccc(cc1)C[C@H]1c3cc(c(OC)cc3CCN1C)Oc1c(OC)c(OC)cc3c1[C@H](C2)N(C)CC3`: the GI50 is 2.19 µM.

Regarding `COc1c(C2CC(=O)Nc3c2cnn3Cc2ccco2)cc2c(c1OC)OCO2` (centres undefined), the GI50 was 1.67 µM and the TGI was greater than 26.4 µM.

For the compound `COc1ccc(C(=O)Nc2ncc(Cc3ccc(Cl)cc3)s2)cc1`, the GI50 was 0.176 µM and the TGI amounted to 47.3 µM.
